Experiments:
[1] = test system: nasal polyps specimen surgically obtained from a patient with eosinophilic sinusitis; assay: Ex vivo incubation of nasal polyps specimens, weight change before/after about 24 h; set-up: species or system human; conditions: 37° C.; for (A) − (B) (mg), nasal polyps weight decrease / After incubation (mg) (B), nasal polyps specimen weight: single case; for nasal polyps weight change before and after incubation (paired t-test): 6 cases
Procedure: (§1) A heparinoid (organic sulfate group 25.8 to 37.3% w/w, D-glucuronic acid 19.0 to 24.0% w/w, Maruho Co., Ltd.) dried under reduced pressure was dissolved in saline to prepare heparinoid solutions (0.3, 30 and 3,000 μg/mL). A nasal polyps specimen was surgically obtained from a patient with eosinophilic sinusitis, cut into pieces of about 5 mm squares, wiped off the moisture and measured the weight. Each specimen was transferred to a 12-well plate. The specimen in the plate was incubated with 1 mL of saline or heparinoid solutions at 37° C. for about 24 hours. Then, after wiping off the moisture in the incubated specimen taken from the plate, the weight of the specimen was measured. The difference between specimen weights before and after incubation was used as an index of a nasal polyps reduction effect. The saline group and heparinoid solution groups (different in concentration) of FIG. 1 each consisted of 6 cases.
The reduction effects of heparinoid solutions (0.003, 0.03, 0.3 and 30 μg/mL) on nasal polyps were evaluated in the same method as in Example 1. The saline group and heparinoid solution groups (different in concentration) of FIG. 2 each consisted of 6 cases.
A PPS solution (0.003 μg/mL) was prepared and the reduction effect on nasal polyps was evaluated in the same method as in Example 1. PPS used herein was sodium pentosan polysulfate (weight average molecular weight 4,000 to 6,500, sulfur content 13.0 to 20.0% w/w, glucuronic acid content 2.5 to 4.0% w/w) manufactured by Molclone Labs. The saline group and PPS solution group of FIG. 3 each consisted of 6 cases.
The following 11 types of polysaccharide solutions (polysaccharides except glucomannan: 300 μg/mL; glucomannan 30 μg/mL) were prepared and the reduction effect on nasal polyps was evaluated in the same method as in Example 1. The saline groups and polysaccharide solution groups (different in concentration) of Tables 1 to 4 each consisted of a single case. • Chondroitin (chondroitin sodium, weight average molecular weight 42,351, sulfate group content 2.6%, manufactured by Maruho Co., Ltd.) • Low-molecular chondroitin sulfate (low-molecular sodium chondroitin sulfate, weight average molecular weight 11,500, sulfate group content 8.9%, manufactured by Maruho Co., Ltd.) • Chondroitin sulfate A (sodium chondroitin sulfate A, manufactured by PG Research) • Dermatan sulfate (sodium dermatan sulfate, manufactured by Tokyo Chemical Industry Co., Ltd.) • Chondroitin sulfate C (sodium chondroitin sulfate C, manufactured by PG Research) • Glucomannan (Propol A, manufactured by Shimizu Chemical Corporation) • Dextran sulfate (sodium dextran sulfate 500,000, manufactured by FUJIFILM Wako Pure Chemical Corporation) • Keratan sulfate (sodium keratan sulfate, manufactured by PG Research) • Inulin (manufactured by Tokyo Chemical Industry Co., Ltd.) • Heparan sulfate (manufactured by Toronto Research Chemicals, Inc.) • Xylo-oligosaccharide (xylo-hexaose, manufactured by Megazyme)

[2] = test system: nasal polyps surgically obtained from patients with eosinophilic sinusitis; conditions: Non Patent Literature 5; cited from earlier work
[3] = test system: rat nasal mucosal inflammation models; conditions: Non Patent Literature 4; cited from earlier work
[4] = test system: nasal polyps specimen surgically obtained from a patient with non-eosinophilic sinusitis; assay: Ex vivo incubation of nasal polyps specimens, weight change before/after about 24 h; set-up: species or system human; conditions: single case; for (A) − (B) (mg), nasal polyps weight decrease / After incubation (mg) (B), nasal polyps specimen weight: 37° C., about 24 hours; for nasal polyps weight change before and after incubation, in words: 0.03, 0.3, 30 and 300 μg/mL, individually
Procedure: as §1
In the same method as in Example 1, heparinoid solutions and PPS solutions (0.03, 0.3, 30 and 300 μg/mL, respectively) were prepared and the reduction effect on nasal polyps specimen surgically obtained from a patient with non-eosinophilic sinusitis was evaluated. The heparinoid and PPS were also the same as those used in Example 1 and Example 3, respectively. The saline groups, heparinoid solution group and PPS solution groups of Table 5 each consisted of a single case.

Molecule: OC1OC[C@@H](O[C@@H]2OC[C@@H](O[C@@H]3OC[C@@H](O[C@@H]4OC[C@@H](O[C@@H]5OC[C@@H](O[C@@H]6OC[C@@H](O)[C@H](O)[C@H]6O)[C@H](O)[C@H]5O)[C@H](O)[C@H]4O)[C@H](O)[C@H]3O)[C@H](O)[C@H]2O)[C@H](O)[C@H]1O (stereo partly shown) [Xylo-oligosaccharide, xylo-hexaose]
- (A) − (B) (mg), nasal polyps weight decrease ([1]; 300 μg/mL in saline): 17.9 mg
- After incubation (mg) (B), nasal polyps specimen weight ([1]; 300 μg/mL in saline): 110.4 mg

Molecule: Glucomannan
- (A) − (B) (mg), nasal polyps weight decrease ([1]; 30 μg/mL in saline): 19.0 mg
- After incubation (mg) (B), nasal polyps specimen weight ([1]; 30 μg/mL in saline): 81.0 mg

Molecule: Heparan sulfate
- (A) − (B) (mg), nasal polyps weight decrease ([1]; 300 μg/mL in saline): 25.5 mg
- After incubation (mg) (B), nasal polyps specimen weight ([1]; 300 μg/mL in saline): 103.0 mg

Molecule: Inulin
- (A) − (B) (mg), nasal polyps weight decrease ([1]; 300 μg/mL in saline): 46.1 mg
- After incubation (mg) (B), nasal polyps specimen weight ([1]; 300 μg/mL in saline): 85.3 mg

Molecule: chondroitin sodium
- (A) − (B) (mg), nasal polyps weight decrease ([1]; 300 μg/mL in saline): 32.8 mg
- After incubation (mg) (B), nasal polyps specimen weight ([1]; 300 μg/mL in saline): 122.0 mg

Molecule: heparin
- reduction effect on nasal polyps [2]: did not show a reduction effect
- neutrophil infiltration [3]: significantly suppress
- production of mucus [3]: significantly suppress

Molecule: heparinoid
- nasal polyps weight change before and after incubation (paired t-test) ([1]; 0.003 μg/mL): decreased significantly
- nasal polyps weight change before and after incubation (paired t-test) ([1]; 0.03 μg/mL): decreased significantly
- nasal polyps weight change before and after incubation (paired t-test) ([1]; 0.3 μg/mL): decreased significantly
- nasal polyps weight change before and after incubation (paired t-test) ([1]; 30 μg/mL): decreased significantly
- nasal polyps weight change before and after incubation (paired t-test) ([1]; 3,000 μg/mL): decreased significantly
- (A) − (B) (mg), nasal polyps weight decrease ([4]; 0.03 μg/mL): 35.0 mg
- After incubation (mg) (B), nasal polyps specimen weight ([4]; 0.03 μg/mL): 276.0 mg
- (A) − (B) (mg), nasal polyps weight decrease ([4]; 0.3 μg/mL): 28.0 mg
- After incubation (mg) (B), nasal polyps specimen weight ([4]; 0.3 μg/mL): 181.0 mg
- (A) − (B) (mg), nasal polyps weight decrease ([4]; 30 μg/mL): 66.0 mg
- After incubation (mg) (B), nasal polyps specimen weight ([4]; 30 μg/mL): 169.0 mg
- (A) − (B) (mg), nasal polyps weight decrease ([4]; 300 μg/mL): 30.0 mg
- After incubation (mg) (B), nasal polyps specimen weight ([4]; 300 μg/mL): 246.0 mg
- nasal polyps weight change before and after incubation, in words [4]: remarkably decreased

Molecule: low-molecular sodium chondroitin sulfate [Low-molecular chondroitin sulfate]
- (A) − (B) (mg), nasal polyps weight decrease ([1]; 300 μg/mL in saline): 25.0 mg
- After incubation (mg) (B), nasal polyps specimen weight ([1]; 300 μg/mL in saline): 116.0 mg

Molecule: sodium chondroitin sulfate A
- (A) − (B) (mg), nasal polyps weight decrease ([1]; 300 μg/mL in saline): 38.0 mg
- After incubation (mg) (B), nasal polyps specimen weight ([1]; 300 μg/mL in saline): 68.0 mg

Molecule: sodium chondroitin sulfate C
- (A) − (B) (mg), nasal polyps weight decrease ([1]; 300 μg/mL in saline): 44.0 mg
- After incubation (mg) (B), nasal polyps specimen weight ([1]; 300 μg/mL in saline): 80.0 mg

Molecule: sodium dermatan sulfate
- (A) − (B) (mg), nasal polyps weight decrease ([1]; 300 μg/mL in saline): 13.1 mg
- After incubation (mg) (B), nasal polyps specimen weight ([1]; 300 μg/mL in saline): 118.5 mg

Molecule: sodium dextran sulfate 500,000
- (A) − (B) (mg), nasal polyps weight decrease ([1]; 300 μg/mL in saline): 22.0 mg
- After incubation (mg) (B), nasal polyps specimen weight ([1]; 300 μg/mL in saline): 120.0 mg

Molecule: sodium keratan sulfate
- (A) − (B) (mg), nasal polyps weight decrease ([1]; 300 μg/mL in saline): 18.3 mg
- After incubation (mg) (B), nasal polyps specimen weight ([1]; 300 μg/mL in saline): 147.3 mg

Molecule: sodium pentosan polysulfate [PPS]
- nasal polyps weight change before and after incubation (paired t-test) ([1]; 0.003 μg/mL): decreased significantly
- (A) − (B) (mg), nasal polyps weight decrease ([4]; 0.03 μg/mL): 19.0 mg
- After incubation (mg) (B), nasal polyps specimen weight ([4]; 0.03 μg/mL): 214.0 mg
- (A) − (B) (mg), nasal polyps weight decrease ([4]; 0.3 μg/mL): 48.0 mg
- After incubation (mg) (B), nasal polyps specimen weight ([4]; 0.3 μg/mL): 225.0 mg
- (A) − (B) (mg), nasal polyps weight decrease ([4]; 30 μg/mL): 13.0 mg
- After incubation (mg) (B), nasal polyps specimen weight ([4]; 30 μg/mL): 207.0 mg
- (A) − (B) (mg), nasal polyps weight decrease ([4]; 300 μg/mL): 10.0 mg
- After incubation (mg) (B), nasal polyps specimen weight ([4]; 300 μg/mL): 115.0 mg
- nasal polyps weight change before and after incubation, in words [4]: remarkably decreased

— patent US20220347093A1, “PHARMACEUTICAL COMPOSITION” (University of Fukui, priority 2019, published 2022)
